Laboratory results from patent US4472392A, “Sulfonate containing ester prodrugs of corticosteroids” (The Upjohn Company, priority 1983, dated 1984).
Where a name gives a salt, the structure may show the parent alone.

Tests used:
[1] = M. Kawamura et al., Yakugaku Zasshi, 91, 871 (1971); cited from earlier work
[2] = Base catalyzed hydrolysis rate in concentrated versus dilute solution; type: physicochemical; settings: 0.11M solution versus 5×10^-4 M solution
Description: The actual shelf-life of formulations of the above compounds would be expected to differ from the above estimates for two reasons: (1) The solubility of the parent corticosteroid formed on hydrolysis may be exceeded prior to 10% degradation of the ester. Micelle formation by the intact prodrugs of Formula I results in solubilization of free corticosteroid thereby prolonging shelf-life. […]. The degree of solubilization varies with the ester concentration, nature of the pro-moiety, and the structure of the corticosteroid. (2) Micelle formation by the intact prodrug in concentrated solutions results in stabilization of the ester linkage toward base catalyzed hydrolysis. For example, the base catalyzed hydrolysis rate in a 0.11M solution of the compound of Example 1 is less than one-half the rate in a 5×10^-4 M solution.

[3] = Estimated t90% (time for 10% hydrolysis) in dilute aqueous solution at 25° C; type: physicochemical; settings: extrapolated from rate constants at pH 2 and 8 (0.01 ionic strength buffers) to the pH at which hydrolysis is a minimum
Experimental: The solution stability of the compounds of Formula I varies to some extent depending on the nature of X and Y and the values for m and n. Shown in Table I are estimates of t90% (time for 10% hydrolysis) of various derivatives in dilute aqueous solutions at 25° C. These estimates are based on an extrapolation of the rate constants for acid and base catalyzed hydrolysis to the pH at which hydrolysis is a minimum. The rate constants for acid and base catalyzed hydrolysis were determined at pH 2 and 8, respectively, in 0.01 ionic strength buffers.

SMILES	activity in mice [1]	base catalyzed hydrolysis rate relative to the rate in dilute solution [2]	Estimated t90% (time for 10% hydrolysis) [3] [years]
C[C@]12CCC(=O)C=C1CC[C@@H]1[C@@H]2[C@@H](O)C[C@@]2(C)[C@H]1CC[C@]2(O)C(=O)COS(=O)(=O)O [21-sulfate of hydrocortisone]	inactive		
C[C@H]1C[C@@H]2[C@H]([C@@H](O)C[C@@]3(C)[C@H]2CC[C@]3(O)C(=O)COC(=O)CCC(=O)N(C)CCS(=O)(=O)O)[C@@]2(C)C=CC(=O)C=C12 [Example 1, N-Methyl taurine amide of methylprednisolone 21-hemisuccinate (Na salt)]		less than one-half	3.9
C[C@H]1C[C@@H]2[C@H]([C@@H](O)C[C@@]3(C)[C@H]2CC[C@]3(O)C(=O)COC(=O)CCCCCCC(=O)NCCS(=O)(=O)O)[C@@]2(C)C=CC(=O)C=C12 [Example 2, Taurine amide of methylprednisolone 21-suberate (Na salt)]			3.9
C[C@H]1C[C@@H]2[C@H]([C@@H](O)C[C@@]3(C)[C@H]2CC[C@]3(O)C(=O)COC(=O)CCCCCCC(=O)N(C)CCS(=O)(=O)O)[C@@]2(C)C=CC(=O)C=C12 [Example 3, N-Methyltaurine amide of methylprednisolone 21-hemisuberate (Na salt)]			4.1
